# Results published in US20080287549A1, “METHODS AND MATERIALS FOR CONTROLLING RODENT POPULATIONS” (priority 2007, published 2008).
# Key:
# [1] = Ernst et al.; cited from earlier work
# [2] = Body weight in male rats after 7 days of treatment; type: in vivo; conditions: 7 consecutive days; for Effect on body weight compared to the control group: 0.2-20 mg/kg; for Average Loss of Body Weight: pre- vs post-treatment
# Procedure: (§1) Male rats were given increasing doses (control=0 mg/kg, low=0.2 mg/kg, medium=2 mg/kg and high=20 mg/kg) of clomiphene, trans-clomiphene or cis-clomiphene for 7 consecutive days. Treatment was followed by a 7-day washout period. Serum testosterone levels and body weight were tested pre-treatment and post-treatment. Serum testosterone levels were analyzed by direct radioimmunoassay (RIA).
# (§2) There were significant and unexpected decreases in serum testosterone and body weight among all treatment groups. […] There was a significant loss in both body weight and total serum testosterone with clomiphene that was dose-dependent.
# [3] = system: Serum testosterone; test: Serum testosterone in male rats after 7 days of treatment (direct RIA); type: in vivo; conditions: 7 consecutive days; for Effect on serum testosterone levels compared to the control group: 0.2-20 mg/kg; for Average Decrease in Serum Testosterone Level (%): pre- vs post-treatment
# Procedure: as §1, §2
# [4] = cited from earlier work
# [5] = system: FSH, LH, testosterone; conditions: cited from earlier work
# [6] = Long-term low-dose study: mean body weight in male and female rats; type: in vivo
# Procedure: (§3) Twenty-eight weeks of a two-year study of the effects of low dosages of trans-clomiphene (0 mg/kg/day (control), 0.0125 mg/kg/day, 0.025 mg/kg/day and 0.05 mg/kg/day) on mean body weight and mean food consumption in age-matched male and female rats has been completed. For each group, n=60. Losses in body weight and decreases in food consumption in both male and female treatment groups (compared to control groups) have been observed in every treatment group. As the study has progressed, the losses in body weight and decreases in food consumption have become more pronounced. See Table 2 (M=male; F=female; Mean Body weight is in grams; Mean Food consumption is in grams/animal/day; and dosages are of trans-clomiphene in mg/kg/day).
# [7] = Long-term low-dose study: mean food consumption in male and female rats; type: in vivo
# Procedure: as §3
# [8] = female rats, 0.0125 mg/kg/day, Week 2
# [9] = female rats, 0.0125 mg/kg/day, Week 6
# [10] = female rats, 0.0125 mg/kg/day, Week 10
# [11] = female rats, 0.0125 mg/kg/day, Week 14
# [12] = female rats, 0.0125 mg/kg/day, Week 18
# [13] = female rats, 0.0125 mg/kg/day, Week 22
# [14] = female rats, 0.0125 mg/kg/day, Week 26
# [15] = female rats, 0.0125 mg/kg/day, Week 28
# [16] = female rats, 0.025 mg/kg/day, Week 2
# [17] = female rats, 0.025 mg/kg/day, Week 6
# [18] = female rats, 0.025 mg/kg/day, Week 10
# [19] = female rats, 0.025 mg/kg/day, Week 14
# [20] = female rats, 0.025 mg/kg/day, Week 18
# [21] = female rats, 0.025 mg/kg/day, Week 22
# [22] = female rats, 0.025 mg/kg/day, Week 26
# [23] = female rats, 0.025 mg/kg/day, Week 28
# [24] = female rats, 0.05 mg/kg/day, Week 2
# [25] = female rats, 0.05 mg/kg/day, Week 6
# [26] = female rats, 0.05 mg/kg/day, Week 10
# [27] = female rats, 0.05 mg/kg/day, Week 14
# [28] = female rats, 0.05 mg/kg/day, Week 18
# [29] = female rats, 0.05 mg/kg/day, Week 22
# [30] = female rats, 0.05 mg/kg/day, Week 26
# [31] = female rats, 0.05 mg/kg/day, Week 28
# [32] = male rats, 0.0125 mg/kg/day, Week 2
# [33] = male rats, 0.0125 mg/kg/day, Week 6
# [34] = male rats, 0.0125 mg/kg/day, Week 10
# [35] = male rats, 0.0125 mg/kg/day, Week 14
# [36] = male rats, 0.0125 mg/kg/day, Week 18
# [37] = male rats, 0.0125 mg/kg/day, Week 22
# [38] = male rats, 0.0125 mg/kg/day, Week 26
# [39] = male rats, 0.0125 mg/kg/day, Week 28
# [40] = male rats, 0.025 mg/kg/day, Week 2
# [41] = male rats, 0.025 mg/kg/day, Week 6
# [42] = male rats, 0.025 mg/kg/day, Week 10
# [43] = male rats, 0.025 mg/kg/day, Week 14
# [44] = male rats, 0.025 mg/kg/day, Week 18
# [45] = male rats, 0.025 mg/kg/day, Week 22
# [46] = male rats, 0.025 mg/kg/day, Week 26
# [47] = male rats, 0.025 mg/kg/day, Week 28
# [48] = male rats, 0.05 mg/kg/day, Week 2
# [49] = male rats, 0.05 mg/kg/day, Week 6
# [50] = male rats, 0.05 mg/kg/day, Week 10
# [51] = male rats, 0.05 mg/kg/day, Week 14
# [52] = male rats, 0.05 mg/kg/day, Week 18
# [53] = male rats, 0.05 mg/kg/day, Week 22
# [54] = male rats, 0.05 mg/kg/day, Week 26
# [55] = male rats, 0.05 mg/kg/day, Week 28
structure (smiles),measurement,setting,value
"CCN(CC)CCOc1ccc(/C(=C(/Cl)c2ccccc2)c2ccccc2)cc1 [Cis-clomiphene, cis-clomiphene]",estrogenic / antiestrogenic activity,[1],more potent and more estrogenic form
same,Effect on body weight compared to the control group,[2],caused a loss in body weight
same,Average Loss of Body Weight,[2]; high=20 mg/kg,75 g
same,Average Loss of Body Weight,[2]; low=0.2 mg/kg,32 g
same,Average Loss of Body Weight,[2]; medium=2 mg/kg,54 g
same,Effect on serum testosterone levels compared to the control group,[3],significantly and statistically lowered serum testosterone levels
same,Average Decrease in Serum Testosterone Level (%),[3]; low=0.2 mg/kg,68.1%
same,Average Decrease in Serum Testosterone Level (%),[3]; medium=2 mg/kg,99.3%
same,time for which significant blood level is detectable,[4]; following a single dose of clomiphene citrate,in excess of one month
same,in vivo clearance,[4],clears slowly
"CCN(CC)CCOc1ccc(C(=C(Cl)c2ccccc2)c2ccccc2)cc1 [Clomiphene, clomiphene]",Effect on body weight compared to the control group,[2],caused a loss in body weight
same,Average Loss of Body Weight,[2]; high=20 mg/kg,69 g
same,Average Loss of Body Weight,[2]; low=0.2 mg/kg,24 g
same,Average Loss of Body Weight,[2]; medium=2 mg/kg,41 g
same,"LH, FSH, and testosterone",[5]; after 2 months of treatment (Guay et al.),increase
same,free and total testosterone,[5]; men after treatment (Tenover et al.),increases
same,"FSH, LH",[5]; young and old men after treatment (Tenover et al.),increases
same,Effect on serum testosterone levels compared to the control group,[3],significantly and statistically lowered serum testosterone levels
same,Average Decrease in Serum Testosterone Level (%),[3]; high=20 mg/kg,89.7%
same,Average Decrease in Serum Testosterone Level (%),[3]; low=0.2 mg/kg,65.2%
same,Average Decrease in Serum Testosterone Level (%),[3]; medium=2 mg/kg,83.5%
"CCN(CC)CCOc1ccc(/C(=C(\Cl)c2ccccc2)c2ccccc2)cc1 [Trans-clomiphene, trans-clomiphene]",estrogenic / antiestrogenic activity,[1],antiestrogenic
same,Effect on body weight compared to the control group,[2],caused a loss in body weight
same,Average Loss of Body Weight,[2]; high=20 mg/kg,35 g
same,Average Loss of Body Weight,[2]; low=0.2 mg/kg,34 g
same,Average Loss of Body Weight,[2]; medium=2 mg/kg,40 g
same,Effect on serum testosterone levels compared to the control group,[3],significantly and statistically lowered serum testosterone levels
same,Average Decrease in Serum Testosterone Level (%),[3]; high=20 mg/kg,73%
same,Average Decrease in Serum Testosterone Level (%),[3]; low=0.2 mg/kg,71.7%
same,Average Decrease in Serum Testosterone Level (%),[3]; medium=2 mg/kg,68.3%
same,in vivo clearance,[4],rapidly cleared
same,Mean Body weight,[6]; [8],225.1 grams
same,Mean Body weight,[6]; [9],269.0 grams
same,Mean Body weight,[6]; [10],280.3 grams
same,Mean Body weight,[6]; [11],291.8 grams
same,Mean Body weight,[6]; [12],300.8 grams
same,Mean Body weight,[6]; [13],309.0 grams
same,Mean Body weight,[6]; [14],318.7 grams
same,Mean Body weight,[6]; [15],318.4 grams
same,Mean Body weight,[6]; [16],220.4 grams
same,Mean Body weight,[6]; [17],257.3 grams
same,Mean Body weight,[6]; [18],271.8 grams
same,Mean Body weight,[6]; [19],281.4 grams
same,Mean Body weight,[6]; [20],286.9 grams
same,Mean Body weight,[6]; [21],294.9 grams
same,Mean Body weight,[6]; [22],305.5 grams
same,Mean Body weight,[6]; [23],304.4 grams
same,Mean Body weight,[6]; [24],214.4 grams
same,Mean Body weight,[6]; [25],245.1 grams
same,Mean Body weight,[6]; [26],260.3 grams
same,Mean Body weight,[6]; [27],272.3 grams
same,Mean Body weight,[6]; [28],278.9 grams
same,Mean Body weight,[6]; [29],287.7 grams
same,Mean Body weight,[6]; [30],296.9 grams
same,Mean Body weight,[6]; [31],298.3 grams
same,Mean Body weight,[6]; [32],355.5 grams
same,Mean Body weight,[6]; [33],467.0 grams
same,Mean Body weight,[6]; [34],519.0 grams
same,Mean Body weight,[6]; [35],552.1 grams
same,Mean Body weight,[6]; [36],572.5 grams
same,Mean Body weight,[6]; [37],597.8 grams
same,Mean Body weight,[6]; [38],619.6 grams
same,Mean Body weight,[6]; [39],620.2 grams
same,Mean Body weight,[6]; [40],347.4 grams
same,Mean Body weight,[6]; [41],447.8 grams
same,Mean Body weight,[6]; [42],498.0 grams
same,Mean Body weight,[6]; [43],527.8 grams
same,Mean Body weight,[6]; [44],543.3 grams
same,Mean Body weight,[6]; [45],566.3 grams
same,Mean Body weight,[6]; [46],590.0 grams
same,Mean Body weight,[6]; [47],594.2 grams
same,Mean Body weight,[6]; [48],335.2 grams
same,Mean Body weight,[6]; [49],414.1 grams
same,Mean Body weight,[6]; [50],451.7 grams
same,Mean Body weight,[6]; [51],480.5 grams
same,Mean Body weight,[6]; [52],496.9 grams
same,Mean Body weight,[6]; [53],518.8 grams
same,Mean Body weight,[6]; [54],536.8 grams
same,Mean Body weight,[6]; [55],542.9 grams
same,Mean Food consumption,[7]; [8],17.1 grams/animal/day
same,Mean Food consumption,[7]; [9],17.4 grams/animal/day
same,Mean Food consumption,[7]; [10],17.5 grams/animal/day
same,Mean Food consumption,[7]; [11],20.0 grams/animal/day
same,Mean Food consumption,[7]; [12],17.5 grams/animal/day
same,Mean Food consumption,[7]; [13],17.8 grams/animal/day
same,Mean Food consumption,[7]; [14],16.9 grams/animal/day
same,Mean Food consumption,[7]; [15],16.4 grams/animal/day
same,Mean Food consumption,[7]; [16],17.3 grams/animal/day
same,Mean Food consumption,[7]; [17],16.7 grams/animal/day
same,Mean Food consumption,[7]; [18],17.8 grams/animal/day
same,Mean Food consumption,[7]; [19],18.2 grams/animal/day
same,Mean Food consumption,[7]; [20],16.1 grams/animal/day
same,Mean Food consumption,[7]; [21],17.0 grams/animal/day
same,Mean Food consumption,[7]; [22],16.3 grams/animal/day
same,Mean Food consumption,[7]; [23],15.4 grams/animal/day
same,Mean Food consumption,[7]; [24],16.0 grams/animal/day
same,Mean Food consumption,[7]; [25],15.8 grams/animal/day
same,Mean Food consumption,[7]; [26],17.4 grams/animal/day
same,Mean Food consumption,[7]; [27],19.0 grams/animal/day
same,Mean Food consumption,[7]; [28],16.4 grams/animal/day
same,Mean Food consumption,[7]; [29],17.5 grams/animal/day
same,Mean Food consumption,[7]; [30],16.3 grams/animal/day
same,Mean Food consumption,[7]; [31],15.3 grams/animal/day
same,hypophagic effects,"[7]; male and female rats, 0.0125-0.05 mg/kg/day, twenty-eight weeks",observed even at extremely low concentrations
same,Mean Food consumption,[7]; [32],23.8 grams/animal/day
same,Mean Food consumption,[7]; [33],25.1 grams/animal/day
same,Mean Food consumption,[7]; [34],26.6 grams/animal/day
same,Mean Food consumption,[7]; [35],26.5 grams/animal/day
same,Mean Food consumption,[7]; [36],24.3 grams/animal/day
same,Mean Food consumption,[7]; [37],25.1 grams/animal/day
same,Mean Food consumption,[7]; [38],23.1 grams/animal/day
same,Mean Food consumption,[7]; [39],23.6 grams/animal/day
same,Mean Food consumption,[7]; [40],24.3 grams/animal/day
same,Mean Food consumption,[7]; [41],23.8 grams/animal/day
same,Mean Food consumption,[7]; [42],26.9 grams/animal/day
same,Mean Food consumption,[7]; [43],25.4 grams/animal/day
same,Mean Food consumption,[7]; [44],23.6 grams/animal/day
same,Mean Food consumption,[7]; [45],24.0 grams/animal/day
same,Mean Food consumption,[7]; [46],23.4 grams/animal/day
same,Mean Food consumption,[7]; [47],22.6 grams/animal/day
same,Mean Food consumption,[7]; [48],22.0 grams/animal/day
same,Mean Food consumption,[7]; [49],22.5 grams/animal/day
same,Mean Food consumption,[7]; [50],23.5 grams/animal/day
same,Mean Food consumption,[7]; [51],25.9 grams/animal/day
same,Mean Food consumption,[7]; [52],22.6 grams/animal/day
same,Mean Food consumption,[7]; [53],23.1 grams/animal/day
same,Mean Food consumption,[7]; [54],22.4 grams/animal/day
same,Mean Food consumption,[7]; [55],22.0 grams/animal/day
